Measured values as given in article PMC6450673, “Targeted degradation of aberrant tau in frontotemporal dementia patient-derived neuronal cell models” (eLife, 2019).
Several values for one entry are separate records, joined by “and”; a condition that tells them apart may be missing. Equal entries are not always repeated.

Assays:
[1] = test system: P-tau S396 in A152T neurons; assay: Western blot of P-tau S396 in A152T neurons; assay type: cell-based, human; conditions: 24 hr, all concentrations tested, western blot and ELISA
Text: (§1) Cells from individuals carrying the tau risk variant A152T (c.1407G > A; NCBI RefSeq NM_001123066, rs143624519), the autosomal dominant mutation P301L (c.C1907T; NCBI NM_001123066, rs63751273), or age-matched non-mutant WT tau were employed in this study (Figure 2—source data 1). Dermal fibroblasts from the tau-P301L carrier and the healthy individual were generated from a skin biopsy from subjects within the MGH Frontotemporal Disorders Unit as part of the MGH Neurodegeneration Repository. Approval for human subjects’ work was obtained under a Partners/MGH-approved IRB Protocol (#2010P001611/MGH). Fibroblasts were reprogrammed into iPSCs, which were subsequently converted into cortical-enriched neural progenitor cells (NPCs) and differentiated into neuronal cells as previously described ([Almeida et al., 2012]; [Seo et al., 2017]; [Silva et al., 2016]; [Sheridan et al., 2011]) (Silva MC, Manuscript in preparation, 2019). Briefly, cells were cultured in 6-well (Fisher Scientific Corning, Pittsburgh, PA) or 96-well (Fisher Scientific Corning) plates coated with poly-ornithine (20 μg/mL in water, Sigma, St. Louis, MO) and laminin (5 μg/mL in PBS, Sigma) (POL-coated), in DMEM/F12-B27 media [70% DMEM (Gibco, Carlsbad, CA), 30% Ham’s-F12 (Fisher Scientific Corning), 2% B27 (Gibco), 1% penicillin-streptomycin (Gibco)]. Media was supplemented with EGF (20 ng/mL, Sigma), FGF (20 ng/mL, Stemgent, Cambridge, MA) and heparin (5 μg/mL, Sigma), to promote NPC proliferation and expansion. The growth factors were withdrawn to promote neural differentiation for 6 to 8 weeks, with half media change two times per week. Cell lines’ identity was authenticated by SANGER sequencing, karyotyping and ACGH analysis at different stages of culture maintenance from iPSC to NPC. All working cell lines tested negative for mycoplasma contamination.
(§2) Compound treatment in six-well plates was performed in 2 mL media volume by removing 1 mL of conditioned media from the culture and adding 1 mL of new media pre-mixed with the compound at the appropriate 2X concentration, followed by incubation at 37°C for the designated period of time. Compound treatment in 96-well plates was performed in 100 μL media volume by adding compound directly to each well, followed by incubation at 37°C. When testing the effect of drug pre-treatment, the first compound was added as described above for the period of time needed, and then QC-01–175 was added directly onto the media without media exchange.
(§3) Neurons differentiated in six-well plates for 6 weeks were washed and collected in PBS, lysed in RIPA buffer (Boston Bio-Products, Boston, MA) supplemented with 2% SDS (Sigma), protease inhibitors cocktail (Roche Complete Mini tablets, Mannheim, Germany), and phosphatase inhibitors cocktail (Sigma), followed by water sonication (Bransonic Ultrasonic Baths, Thomas Scientific, Danbury, CT) and 20,000 g centrifugation for 20 min. Supernatants were transferred to new tubes and total protein concentration was quantified with the Pierce BCA Protein Assay Kit (ThermoFisher Scientific, Carlsbad, CA). Human recombinant tau protein ladder was purchased from Sigma. Electrophoresis were performed with the Novex NuPAGE SDS-PAGE Gel System (Invitrogen, Carlsbad, CA), by running 10 μg of total protein (pre-boiled in SDS-DTT loading buffer, NEB, Ipswich, MA) on pre-cast SDS-PAGE. Gels were transferred onto PVDF membranes (EMD Millipore) using standard procedures. Membranes were blocked in 5% BSA (Sigma) in Tris-buffered saline with Tween-20 (TBST/Biorad, Hercules, CA) for 2 hr, incubated overnight with primary antibody (see antibody section) at 4°C, followed by corresponding HRP-linked secondary antibody incubation (Cell Signaling Technology, Danvers, MA). […]

[2] = test system: P-tau S396 in tau-P301L patient iPSC-derived neurons; assay: P-Tau[pS396] ELISA in P301L neurons; assay type: cell-based, human; conditions: 24 h, replicate values
Text: as §1, §2
(§4) Neuronal cells differentiated in six-well plate format for 6 weeks, were collected as described for western blotting, and lysed in ELISA-compatible buffer (Invitrogen FNN0011), supplemented with 1 mM PMSF, protease (Roche) and phosphatase (Sigma) inhibitors cocktails, for 30 min on ice with quick vortexing. Lysates were clarified by centrifugation at 13,000 rpm at 4°C for 10 min. The clear lysates were then transferred to new microfuge tubes and total protein concentration was quantified with the Pierce BCA Protein Assay Kit (ThermoFisher Scientific). ELISA assays were performed according to manufacturer instructions: Human Total Tau ELISA (Invitrogen Kit KHB0041/KHB0042) and P-Tau[pS396] Human ELISA Kit (Invitrogen Kit KHB7031). Data was plotted using GraphPad Prism version 8.0.

[3] = test system: total tau (TAU5) in P301L neurons; assay: Western blot of total tau in P301L neurons; assay type: cell-based, human; conditions: western blot, 1 μM, 24 hr
Text: as §1
Compound treatment in six-well plates was performed in 2 mL media volume by removing 1 mL of conditioned media from the culture and adding 1 mL of new media pre-mixed with the compound at the appropriate 2X concentration, followed by incubation at 37°C for the designated period of time. […]
Neurons differentiated in six-well plates for 6 weeks were washed and collected in PBS, lysed in RIPA buffer (Boston Bio-Products, Boston, MA) supplemented with 2% SDS (Sigma), protease inhibitors cocktail (Roche Complete Mini tablets, Mannheim, Germany), and phosphatase inhibitors cocktail (Sigma), followed by water sonication (Bransonic Ultrasonic Baths, Thomas Scientific, Danbury, CT) and 20,000 g centrifugation for 20 min. Supernatants were transferred to new tubes and total protein concentration was quantified with the Pierce BCA Protein Assay Kit (ThermoFisher Scientific, Carlsbad, CA). […]

[4] = target: T1, total tau (TAU5) in non-mutant control iPSC-derived neurons (Homo sapiens, UniProt P10636); assay: Human total tau ELISA in control neurons 1-3; assay type: cell-based; conditions: all three control neurons, ELISA, 24 hr, concentrations up to 1 μM
T1 construct: modeling pathogenic tau species without the need for overexpression of heterologous genes; endogenous in cells; host or cells: 8330-8-RC1, MGH2069-RC1, CTR2-L17-RC2 human iPSC-derived neurons
Text: as §1, §2, §4

[5] = test system: P-tau S396 in P301L neurons; assay: Western blot of P-tau S396 in P301L neurons; assay type: cell-based, human; conditions: western blot, 1 μM, 24 hr
Text: as §1, §2, §3

[6] = test system: total tau (TAU5) in A152T neurons; assay: Western blot of total tau in A152T neurons; assay type: cell-based, human; conditions: 24 hr, all concentrations tested, western blot and ELISA
Text: as §1, §2, §3

T1 sequence (P10636 1-441 isoform P10636-8, stated change not applied): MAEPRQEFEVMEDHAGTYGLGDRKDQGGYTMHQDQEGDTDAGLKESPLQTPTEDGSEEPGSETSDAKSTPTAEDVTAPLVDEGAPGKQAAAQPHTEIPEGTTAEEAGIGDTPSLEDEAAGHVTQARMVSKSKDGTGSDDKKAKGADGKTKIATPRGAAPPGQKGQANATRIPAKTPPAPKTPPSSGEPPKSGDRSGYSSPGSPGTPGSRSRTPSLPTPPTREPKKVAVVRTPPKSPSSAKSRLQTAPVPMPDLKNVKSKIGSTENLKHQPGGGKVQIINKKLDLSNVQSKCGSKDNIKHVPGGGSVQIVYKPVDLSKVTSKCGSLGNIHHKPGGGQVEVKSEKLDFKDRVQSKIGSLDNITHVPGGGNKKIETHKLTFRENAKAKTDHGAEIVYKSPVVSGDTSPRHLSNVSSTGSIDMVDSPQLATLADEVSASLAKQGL

O=C(CCc1ccc2c(c1)[nH]c1ccncc12)NCCOCCOCCNc1cccc2c1C(=O)N(C1CCCNC1=O)C2=O (stereo not drawn) [QC-03–075]
effect on levels of P-tau S396 [1]: no effect | S396 P-Tau (ELISA, relative to vehicle-treated) ([2]; 0.001 μM compound): 0.78 and 0.92 and 0.82 and 0.98 and 0.91 and 0.80 | S396 P-Tau (ELISA, relative to vehicle-treated) ([2]; 0.01 μM compound): 0.75 and 0.69 and 0.79 and 0.95 and 0.71 and 0.78 | S396 P-Tau (ELISA, relative to vehicle-treated) ([2]; 0.05 μM compound): 0.82 and 0.66 and 0.76 and 0.92 and 0.72 and 0.74 | S396 P-Tau (ELISA, relative to vehicle-treated) ([2]; 0.1 μM compound): 0.74 and 0.68 and 0.98 and 0.64 and 0.75 and 0.87 | S396 P-Tau (ELISA, relative to vehicle-treated) ([2]; 0.5 μM compound): 1.00 (2×) and 0.92 and 1.05 and 0.87 and 1.03 | S396 P-Tau (ELISA, relative to vehicle-treated) ([2]; 1 μM compound): 1.05 and 0.97 and 1.10 and 0.91 and 1.00 and 1.08 | S396 P-Tau (ELISA, relative to vehicle-treated) ([2]; 10 μM compound): 0.62 and 0.57 and 0.65 and 0.54 and 0.69 and 0.64 | reduction in total tau [3]: no effect | degradation of tau [4]: No significant degradation | reduction of P-tau S396 [5]: no effect | effect on levels of total tau [6]: no significant effect
